Measured values taken from paper PMC8333062, “Chemical tools for epichaperome-mediated interactome dysfunctions of the central nervous system” (Nature Communications, 2021).

Columns and labels:
Test in all cases: scanEDGE off-target screen
Type in all cases: binding
[1] = biological target: T1, 97 kinases (Homo sapiens, UniProt P04049); details: read-out: %Ctrl RAF1
T1 construct: purchased Ambit Biosciences (scanEDGE / KINOMEscan) scanEDGE 97 kinase panel; host or cells: T7 phage in E. coli BL21-derived host; remaining kinases in HEK-293 cells

[2] = biological target: T2, 97 kinases (Homo sapiens, UniProt Q15831); details: read-out: %Ctrl LKB1
T2 construct: purchased Ambit Biosciences (scanEDGE / KINOMEscan) scanEDGE 97 kinase panel; host or cells: T7 phage in E. coli BL21-derived host; remaining kinases in HEK-293 cells

[3] = biological target: T3, 97 kinases (Homo sapiens, UniProt Q9UPE1); details: read-out: %Ctrl SRPK3
T3 construct: purchased Ambit Biosciences (scanEDGE / KINOMEscan) scanEDGE 97 kinase panel; host or cells: T7 phage in E. coli BL21-derived host; remaining kinases in HEK-293 cells

[4] = biological target: T4, 97 kinases (Homo sapiens, UniProt Q86V86); details: read-out: %Ctrl PIM3
T4 construct: purchased Ambit Biosciences (scanEDGE / KINOMEscan) scanEDGE 97 kinase panel; host or cells: T7 phage in E. coli BL21-derived host; remaining kinases in HEK-293 cells

[5] = biological target: T5, 97 kinases (Homo sapiens, UniProt Q9Y463); details: read-out: %Ctrl DYRK1B
T5 construct: purchased Ambit Biosciences (scanEDGE / KINOMEscan) scanEDGE 97 kinase panel; host or cells: T7 phage in E. coli BL21-derived host; remaining kinases in HEK-293 cells

[6] = biological target: T6, 97 kinases (Homo sapiens, UniProt P00519, E255K); details: read-out: %Ctrl ABL1(E255K)-phosphorylated
T6 construct: purchased Ambit Biosciences (scanEDGE / KINOMEscan) scanEDGE 97 kinase panel; host or cells: T7 phage in E. coli BL21-derived host; remaining kinases in HEK-293 cells

[7] = biological target: T7, 97 kinases (Homo sapiens, UniProt P49137); details: read-out: %Ctrl MAPKAPK2
T7 construct: purchased Ambit Biosciences (scanEDGE / KINOMEscan) scanEDGE 97 kinase panel; host or cells: T7 phage in E. coli BL21-derived host; remaining kinases in HEK-293 cells

[8] = biological target: T8, 97 kinases (Homo sapiens, UniProt P12931); details: read-out: %Ctrl SRC
T8 construct: purchased Ambit Biosciences (scanEDGE / KINOMEscan) scanEDGE 97 kinase panel; host or cells: T7 phage in E. coli BL21-derived host; remaining kinases in HEK-293 cells

[9] = biological target: T9, 97 kinases (Homo sapiens, UniProt Q9HBH9); details: read-out: %Ctrl MKNK2
T9 construct: purchased Ambit Biosciences (scanEDGE / KINOMEscan) scanEDGE 97 kinase panel; host or cells: T7 phage in E. coli BL21-derived host; remaining kinases in HEK-293 cells

[10] = biological target: T10, 97 kinases (Homo sapiens, UniProt P48736); details: read-out: %Ctrl PIK3CG
T10 construct: purchased Ambit Biosciences (scanEDGE / KINOMEscan) scanEDGE 97 kinase panel; host or cells: T7 phage in E. coli BL21-derived host; remaining kinases in HEK-293 cells

[11] = biological target: T11, 97 kinases (Homo sapiens, UniProt Q9H093); details: read-out: %Ctrl SNARK
T11 construct: purchased Ambit Biosciences (scanEDGE / KINOMEscan) scanEDGE 97 kinase panel; host or cells: T7 phage in E. coli BL21-derived host; remaining kinases in HEK-293 cells

[12] = biological target: T12, 97 kinases (Homo sapiens, UniProt P31751); details: read-out: %Ctrl AKT2
T12 construct: purchased Ambit Biosciences (scanEDGE / KINOMEscan) scanEDGE 97 kinase panel; host or cells: T7 phage in E. coli BL21-derived host; remaining kinases in HEK-293 cells

[13] = biological target: T13, 97 kinases (Homo sapiens, UniProt P00533, L858R); details: read-out: %Ctrl EGFR(L858R)
T13 construct: purchased Ambit Biosciences (scanEDGE / KINOMEscan) scanEDGE 97 kinase panel; host or cells: T7 phage in E. coli BL21-derived host; remaining kinases in HEK-293 cells

[14] = biological target: T14, 97 kinases (Homo sapiens, UniProt P45984); details: read-out: %Ctrl JNK2
T14 construct: purchased Ambit Biosciences (scanEDGE / KINOMEscan) scanEDGE 97 kinase panel; host or cells: T7 phage in E. coli BL21-derived host; remaining kinases in HEK-293 cells

[15] = biological target: T15, 97 kinases (Homo sapiens, UniProt P49841); details: read-out: %Ctrl GSK3B
T15 construct: purchased Ambit Biosciences (scanEDGE / KINOMEscan) scanEDGE 97 kinase panel; host or cells: T7 phage in E. coli BL21-derived host; remaining kinases in HEK-293 cells

[16] = biological target: T16, 97 kinases (Homo sapiens, UniProt P50613); details: read-out: %Ctrl CDK7
T16 construct: purchased Ambit Biosciences (scanEDGE / KINOMEscan) scanEDGE 97 kinase panel; host or cells: T7 phage in E. coli BL21-derived host; remaining kinases in HEK-293 cells

[17] = biological target: T17, 97 kinases (Homo sapiens, UniProt Q15759); details: read-out: %Ctrl p38-beta
T17 construct: purchased Ambit Biosciences (scanEDGE / KINOMEscan) scanEDGE 97 kinase panel; host or cells: T7 phage in E. coli BL21-derived host; remaining kinases in HEK-293 cells

[18] = biological target: T18, 97 kinases (Homo sapiens, UniProt P06213); details: read-out: %Ctrl INSR
T18 construct: purchased Ambit Biosciences (scanEDGE / KINOMEscan) scanEDGE 97 kinase panel; host or cells: T7 phage in E. coli BL21-derived host; remaining kinases in HEK-293 cells

[19] = biological target: T19, 97 kinases (Homo sapiens, UniProt Q02156); details: read-out: %Ctrl PRKCE
T19 construct: purchased Ambit Biosciences (scanEDGE / KINOMEscan) scanEDGE 97 kinase panel; host or cells: T7 phage in E. coli BL21-derived host; remaining kinases in HEK-293 cells

[20] = biological target: T20, 97 kinases (Homo sapiens, UniProt Q9Y6R4); details: read-out: %Ctrl MAP3K4
T20 construct: purchased Ambit Biosciences (scanEDGE / KINOMEscan) scanEDGE 97 kinase panel; host or cells: T7 phage in E. coli BL21-derived host; remaining kinases in HEK-293 cells

[21] = biological target: T21, 97 kinases (Homo sapiens, UniProt P15056, V600E); details: read-out: %Ctrl BRAF(V600E)
T21 construct: purchased Ambit Biosciences (scanEDGE / KINOMEscan) scanEDGE 97 kinase panel; host or cells: T7 phage in E. coli BL21-derived host; remaining kinases in HEK-293 cells

[22] = biological target: T22, 97 kinases (Homo sapiens, UniProt Q9UM73); details: read-out: %Ctrl ALK
T22 construct: purchased Ambit Biosciences (scanEDGE / KINOMEscan) scanEDGE 97 kinase panel; host or cells: T7 phage in E. coli BL21-derived host; remaining kinases in HEK-293 cells

[23] = biological target: T23, 97 kinases (Homo sapiens, UniProt Q05397); details: read-out: %Ctrl FAK
T23 construct: purchased Ambit Biosciences (scanEDGE / KINOMEscan) scanEDGE 97 kinase panel; host or cells: T7 phage in E. coli BL21-derived host; remaining kinases in HEK-293 cells

[24] = biological target: T24, 97 kinases (Homo sapiens, UniProt Q06187); details: read-out: %Ctrl BTK
T24 construct: purchased Ambit Biosciences (scanEDGE / KINOMEscan) scanEDGE 97 kinase panel; host or cells: T7 phage in E. coli BL21-derived host; remaining kinases in HEK-293 cells

[25] = biological target: T25, 97 kinases (Homo sapiens, UniProt P30530); details: read-out: %Ctrl AXL
T25 construct: purchased Ambit Biosciences (scanEDGE / KINOMEscan) scanEDGE 97 kinase panel; host or cells: T7 phage in E. coli BL21-derived host; remaining kinases in HEK-293 cells

[26] = biological target: T26, 97 kinases (Homo sapiens, UniProt O00444); details: read-out: %Ctrl PLK4
T26 construct: purchased Ambit Biosciences (scanEDGE / KINOMEscan) scanEDGE 97 kinase panel; host or cells: T7 phage in E. coli BL21-derived host; remaining kinases in HEK-293 cells

[27] = biological target: T27, 97 kinases (Homo sapiens, UniProt P08069); details: read-out: %Ctrl IGF1R
T27 construct: purchased Ambit Biosciences (scanEDGE / KINOMEscan) scanEDGE 97 kinase panel; host or cells: T7 phage in E. coli BL21-derived host; remaining kinases in HEK-293 cells

[28] = biological target: T28, 97 kinases (Homo sapiens, UniProt Q13177); details: read-out: %Ctrl PAK2
T28 construct: purchased Ambit Biosciences (scanEDGE / KINOMEscan) scanEDGE 97 kinase panel; host or cells: T7 phage in E. coli BL21-derived host; remaining kinases in HEK-293 cells

[29] = biological target: T29, 97 kinases (Homo sapiens, UniProt P53779); details: read-out: %Ctrl JNK3
T29 construct: purchased Ambit Biosciences (scanEDGE / KINOMEscan) scanEDGE 97 kinase panel; host or cells: T7 phage in E. coli BL21-derived host; remaining kinases in HEK-293 cells

[30] = biological target: T30, 97 kinases (Homo sapiens, UniProt P53350); details: read-out: %Ctrl PLK1
T30 construct: purchased Ambit Biosciences (scanEDGE / KINOMEscan) scanEDGE 97 kinase panel; host or cells: T7 phage in E. coli BL21-derived host; remaining kinases in HEK-293 cells

[31] = biological target: T31, 97 kinases (Homo sapiens, UniProt P52333); details: read-out: %Ctrl JAK3(JH1domain-catalytic)
T31 construct: purchased Ambit Biosciences (scanEDGE / KINOMEscan) scanEDGE 97 kinase panel; host or cells: T7 phage in E. coli BL21-derived host; remaining kinases in HEK-293 cells

[32] = biological target: T32, 97 kinases (Homo sapiens, UniProt Q9BVS4); details: read-out: %Ctrl RIOK2
T32 construct: purchased Ambit Biosciences (scanEDGE / KINOMEscan) scanEDGE 97 kinase panel; host or cells: T7 phage in E. coli BL21-derived host; remaining kinases in HEK-293 cells

[33] = biological target: T33, 97 kinases (Homo sapiens, UniProt P09619); details: read-out: %Ctrl PDGFRB
T33 construct: purchased Ambit Biosciences (scanEDGE / KINOMEscan) scanEDGE 97 kinase panel; host or cells: T7 phage in E. coli BL21-derived host; remaining kinases in HEK-293 cells

[34] = biological target: T34, 97 kinases (Homo sapiens, UniProt Q9P1W9); details: read-out: %Ctrl PIM2
T34 construct: purchased Ambit Biosciences (scanEDGE / KINOMEscan) scanEDGE 97 kinase panel; host or cells: T7 phage in E. coli BL21-derived host; remaining kinases in HEK-293 cells

[35] = biological target: T35, 97 kinases (Homo sapiens, UniProt P10721, D816V); details: read-out: %Ctrl KIT(D816V)
T35 construct: purchased Ambit Biosciences (scanEDGE / KINOMEscan) scanEDGE 97 kinase panel; host or cells: T7 phage in E. coli BL21-derived host; remaining kinases in HEK-293 cells

[36] = biological target: T36, 97 kinases (Homo sapiens, UniProt O60674); details: read-out: %Ctrl JAK2(JH1domain-catalytic)
T36 construct: purchased Ambit Biosciences (scanEDGE / KINOMEscan) scanEDGE 97 kinase panel; host or cells: T7 phage in E. coli BL21-derived host; remaining kinases in HEK-293 cells

[37] = biological target: T37, 97 kinases (Homo sapiens, UniProt Q86UX6); details: read-out: %Ctrl YANK3
T37 construct: purchased Ambit Biosciences (scanEDGE / KINOMEscan) scanEDGE 97 kinase panel; host or cells: T7 phage in E. coli BL21-derived host; remaining kinases in HEK-293 cells

[38] = biological target: T38, 97 kinases (Homo sapiens, UniProt P04626); details: read-out: %Ctrl ERBB2
T38 construct: purchased Ambit Biosciences (scanEDGE / KINOMEscan) scanEDGE 97 kinase panel; host or cells: T7 phage in E. coli BL21-derived host; remaining kinases in HEK-293 cells

T15 sequence (P49841 whole entry): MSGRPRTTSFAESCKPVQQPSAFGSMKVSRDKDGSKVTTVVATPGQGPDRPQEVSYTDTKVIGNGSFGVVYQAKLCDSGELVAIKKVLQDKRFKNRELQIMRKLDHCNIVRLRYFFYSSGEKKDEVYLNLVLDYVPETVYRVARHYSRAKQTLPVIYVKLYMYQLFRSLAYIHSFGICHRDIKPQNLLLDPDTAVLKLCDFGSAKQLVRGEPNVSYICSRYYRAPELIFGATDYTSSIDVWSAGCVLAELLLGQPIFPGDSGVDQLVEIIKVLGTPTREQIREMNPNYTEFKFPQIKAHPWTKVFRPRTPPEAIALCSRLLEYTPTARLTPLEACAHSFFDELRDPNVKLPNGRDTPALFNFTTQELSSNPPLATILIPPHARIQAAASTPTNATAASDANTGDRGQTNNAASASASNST
T6 sequence (P00519 whole entry E255K): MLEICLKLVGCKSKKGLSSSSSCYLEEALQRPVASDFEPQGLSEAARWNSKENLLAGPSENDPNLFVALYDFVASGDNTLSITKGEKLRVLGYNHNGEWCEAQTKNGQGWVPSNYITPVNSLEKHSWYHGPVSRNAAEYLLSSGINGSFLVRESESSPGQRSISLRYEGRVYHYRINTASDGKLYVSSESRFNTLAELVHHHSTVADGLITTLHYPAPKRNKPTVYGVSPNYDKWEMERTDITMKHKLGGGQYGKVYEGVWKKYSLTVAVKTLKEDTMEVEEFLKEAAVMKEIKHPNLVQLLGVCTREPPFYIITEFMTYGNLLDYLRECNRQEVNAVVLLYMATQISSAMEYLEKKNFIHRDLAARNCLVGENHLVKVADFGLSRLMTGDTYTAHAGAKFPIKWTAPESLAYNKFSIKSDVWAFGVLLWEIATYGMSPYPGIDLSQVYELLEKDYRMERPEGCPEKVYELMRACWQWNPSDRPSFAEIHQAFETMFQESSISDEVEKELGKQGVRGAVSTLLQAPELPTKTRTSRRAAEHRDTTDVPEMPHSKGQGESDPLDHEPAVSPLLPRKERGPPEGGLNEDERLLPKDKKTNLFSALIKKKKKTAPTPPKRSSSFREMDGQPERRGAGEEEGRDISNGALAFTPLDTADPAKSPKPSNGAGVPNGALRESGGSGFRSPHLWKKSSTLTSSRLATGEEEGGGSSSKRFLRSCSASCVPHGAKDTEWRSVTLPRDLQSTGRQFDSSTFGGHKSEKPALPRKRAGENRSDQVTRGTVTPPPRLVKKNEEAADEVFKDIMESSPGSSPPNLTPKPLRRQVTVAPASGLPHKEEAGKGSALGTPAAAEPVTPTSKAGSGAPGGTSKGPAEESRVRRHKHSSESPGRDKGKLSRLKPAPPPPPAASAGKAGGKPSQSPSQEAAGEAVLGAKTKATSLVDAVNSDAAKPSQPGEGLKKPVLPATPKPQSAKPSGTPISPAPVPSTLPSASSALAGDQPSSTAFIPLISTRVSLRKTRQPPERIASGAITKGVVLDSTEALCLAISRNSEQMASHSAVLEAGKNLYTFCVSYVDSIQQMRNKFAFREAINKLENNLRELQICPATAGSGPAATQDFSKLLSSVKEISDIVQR
T20 sequence (Q9Y6R4 whole entry): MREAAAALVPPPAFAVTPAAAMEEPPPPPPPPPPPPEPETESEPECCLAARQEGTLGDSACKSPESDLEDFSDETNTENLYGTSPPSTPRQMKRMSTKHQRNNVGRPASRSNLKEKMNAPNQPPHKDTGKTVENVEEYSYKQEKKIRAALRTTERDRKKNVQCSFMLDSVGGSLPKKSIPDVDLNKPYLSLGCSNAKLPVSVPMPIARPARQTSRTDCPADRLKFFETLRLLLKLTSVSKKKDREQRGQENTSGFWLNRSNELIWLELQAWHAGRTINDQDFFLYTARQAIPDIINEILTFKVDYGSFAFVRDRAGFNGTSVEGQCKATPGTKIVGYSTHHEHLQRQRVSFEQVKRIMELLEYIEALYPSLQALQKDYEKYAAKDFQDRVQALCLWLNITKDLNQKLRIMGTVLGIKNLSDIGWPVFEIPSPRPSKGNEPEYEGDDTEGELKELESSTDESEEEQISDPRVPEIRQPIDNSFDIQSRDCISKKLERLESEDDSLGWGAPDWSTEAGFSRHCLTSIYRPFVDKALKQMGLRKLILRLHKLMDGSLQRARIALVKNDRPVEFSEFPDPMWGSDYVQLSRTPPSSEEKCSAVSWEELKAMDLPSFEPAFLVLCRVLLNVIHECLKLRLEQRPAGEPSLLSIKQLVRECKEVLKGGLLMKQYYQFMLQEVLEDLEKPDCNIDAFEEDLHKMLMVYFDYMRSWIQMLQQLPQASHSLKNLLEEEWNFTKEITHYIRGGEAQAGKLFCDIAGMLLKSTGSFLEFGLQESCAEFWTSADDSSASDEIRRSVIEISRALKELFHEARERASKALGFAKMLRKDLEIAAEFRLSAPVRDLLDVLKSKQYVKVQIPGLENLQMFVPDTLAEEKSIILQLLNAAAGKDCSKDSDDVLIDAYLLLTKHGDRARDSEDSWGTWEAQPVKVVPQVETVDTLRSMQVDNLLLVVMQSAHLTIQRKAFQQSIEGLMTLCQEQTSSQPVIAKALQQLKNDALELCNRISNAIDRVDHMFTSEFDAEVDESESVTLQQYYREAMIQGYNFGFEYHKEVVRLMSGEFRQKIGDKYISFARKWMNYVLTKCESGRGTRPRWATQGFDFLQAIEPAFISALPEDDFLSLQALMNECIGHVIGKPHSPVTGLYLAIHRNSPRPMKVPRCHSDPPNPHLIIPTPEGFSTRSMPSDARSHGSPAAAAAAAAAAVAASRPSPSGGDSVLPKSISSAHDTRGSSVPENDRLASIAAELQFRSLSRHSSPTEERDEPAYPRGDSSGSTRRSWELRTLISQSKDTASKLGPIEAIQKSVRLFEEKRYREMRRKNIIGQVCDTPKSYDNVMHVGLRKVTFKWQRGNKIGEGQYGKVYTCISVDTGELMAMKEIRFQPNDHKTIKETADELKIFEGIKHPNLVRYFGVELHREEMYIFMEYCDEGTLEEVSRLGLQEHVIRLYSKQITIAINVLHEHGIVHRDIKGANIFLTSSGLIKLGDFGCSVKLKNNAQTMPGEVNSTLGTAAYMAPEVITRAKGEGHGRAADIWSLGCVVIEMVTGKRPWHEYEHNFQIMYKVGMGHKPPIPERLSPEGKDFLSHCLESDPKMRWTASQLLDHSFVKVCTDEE
T18 sequence (P06213 28-1382): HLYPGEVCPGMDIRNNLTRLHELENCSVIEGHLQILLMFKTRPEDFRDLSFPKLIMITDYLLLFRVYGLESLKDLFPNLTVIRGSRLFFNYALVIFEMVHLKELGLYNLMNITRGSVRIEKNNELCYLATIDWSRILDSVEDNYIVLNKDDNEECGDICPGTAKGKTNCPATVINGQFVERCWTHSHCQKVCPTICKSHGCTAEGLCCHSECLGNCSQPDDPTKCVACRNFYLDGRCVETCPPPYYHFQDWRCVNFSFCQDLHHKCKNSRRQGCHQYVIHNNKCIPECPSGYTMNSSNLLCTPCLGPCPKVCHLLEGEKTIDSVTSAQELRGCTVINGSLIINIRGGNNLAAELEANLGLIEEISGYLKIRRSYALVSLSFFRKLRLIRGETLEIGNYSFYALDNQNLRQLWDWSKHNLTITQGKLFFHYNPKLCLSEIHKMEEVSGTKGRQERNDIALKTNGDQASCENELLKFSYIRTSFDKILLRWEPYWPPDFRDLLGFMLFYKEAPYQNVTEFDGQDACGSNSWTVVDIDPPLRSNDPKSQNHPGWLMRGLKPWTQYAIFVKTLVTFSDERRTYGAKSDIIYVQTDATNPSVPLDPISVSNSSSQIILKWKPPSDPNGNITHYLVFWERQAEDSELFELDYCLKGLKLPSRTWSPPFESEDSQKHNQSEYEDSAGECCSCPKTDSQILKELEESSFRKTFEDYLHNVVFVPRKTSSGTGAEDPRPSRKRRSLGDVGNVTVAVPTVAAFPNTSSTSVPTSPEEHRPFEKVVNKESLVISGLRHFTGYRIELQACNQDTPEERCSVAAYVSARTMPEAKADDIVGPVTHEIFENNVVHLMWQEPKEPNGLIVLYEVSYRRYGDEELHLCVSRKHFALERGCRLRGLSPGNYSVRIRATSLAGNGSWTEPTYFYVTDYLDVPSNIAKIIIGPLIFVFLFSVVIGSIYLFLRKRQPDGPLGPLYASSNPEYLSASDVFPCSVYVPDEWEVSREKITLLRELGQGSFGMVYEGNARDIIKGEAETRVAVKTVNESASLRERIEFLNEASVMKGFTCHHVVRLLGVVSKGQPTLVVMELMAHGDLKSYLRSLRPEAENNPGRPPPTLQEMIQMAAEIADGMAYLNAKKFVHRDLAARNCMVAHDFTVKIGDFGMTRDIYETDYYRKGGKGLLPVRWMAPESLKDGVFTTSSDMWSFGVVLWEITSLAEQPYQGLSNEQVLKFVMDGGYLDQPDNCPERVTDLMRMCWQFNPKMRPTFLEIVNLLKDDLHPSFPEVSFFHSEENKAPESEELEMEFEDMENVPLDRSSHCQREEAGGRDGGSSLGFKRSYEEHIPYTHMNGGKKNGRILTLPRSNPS
T29 sequence (P53779 whole entry): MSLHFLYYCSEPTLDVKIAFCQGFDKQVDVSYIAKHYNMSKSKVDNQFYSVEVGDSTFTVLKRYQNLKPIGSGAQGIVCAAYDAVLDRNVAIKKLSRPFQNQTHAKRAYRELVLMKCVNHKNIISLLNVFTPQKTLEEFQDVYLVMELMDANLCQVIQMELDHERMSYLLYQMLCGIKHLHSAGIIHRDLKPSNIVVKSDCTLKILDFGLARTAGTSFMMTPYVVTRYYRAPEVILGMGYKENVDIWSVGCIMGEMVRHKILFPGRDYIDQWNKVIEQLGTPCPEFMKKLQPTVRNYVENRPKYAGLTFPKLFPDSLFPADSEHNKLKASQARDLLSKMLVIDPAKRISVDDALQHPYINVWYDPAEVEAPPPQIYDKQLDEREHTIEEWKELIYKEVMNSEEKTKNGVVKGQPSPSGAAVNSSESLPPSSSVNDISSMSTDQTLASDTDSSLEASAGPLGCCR

CC(C)(C)CNCCn1c(Sc2cc3c(cc2I)OCO3)nc2c(N)ncnc21 [Compound 85] gave a remaining binding at 10 µM [1] of 74%, a remaining binding at 10 µM [2] of 81% and a remaining binding at 10 µM [3] of 100%. For the same compound, the remaining binding at 10 µM [4] was 91%, the remaining binding at 10 µM [5] was 36% and the remaining binding at 10 µM [6] was 80%. It also gave a remaining binding at 10 µM [7] of 96%, a remaining binding at 10 µM [8] of 100% and a remaining binding at 10 µM [9] of 93%. It also gave a remaining binding at 10 µM [10] of 94%, a remaining binding at 10 µM [11] of 100% and a remaining binding at 10 µM [12] of 87%. The remaining binding at 10 µM [13] was 93%, the remaining binding at 10 µM [14] was 93% and the remaining binding at 10 µM [15] was 88%. It also gave a remaining binding at 10 µM [16] of 79%, a remaining binding at 10 µM [17] of 89% and a remaining binding at 10 µM [18] of 92%. The remaining binding at 10 µM [19] was 100%, the remaining binding at 10 µM [20] was 49% and the remaining binding at 10 µM [21] was 97%. It also gave a remaining binding at 10 µM [22] of 93%, a remaining binding at 10 µM [23] of 96% and a remaining binding at 10 µM [24] of 100%. For the same compound, the remaining binding at 10 µM [25] was 100%, the remaining binding at 10 µM [26] was 89% and the remaining binding at 10 µM [27] was 100%. The remaining binding at 10 µM [28] was 97%, the remaining binding at 10 µM [29] was 100% and the remaining binding at 10 µM [30] was 97%. For the same compound, the remaining binding at 10 µM [31] was 86%, the remaining binding at 10 µM [32] was 94% and the remaining binding at 10 µM [33] was 98%. It also gave a remaining binding at 10 µM [34] of 81%, a remaining binding at 10 µM [35] of 93% and a remaining binding at 10 µM [36] of 100%. It also gave a remaining binding at 10 µM [37] of 95% and a remaining binding at 10 µM [38] of 100%.
